Test results taken from US6548544B1, “Method of treatment of priapism without raising systemic blood pressure” (The National University of Singapore, priority 1999, dated 2003).

Columns and labels:
cavernosum = assay: Other prostaglandins tested using the above protocol (contraction of the cavernosum); type: in vivo; conditions: testing using the above protocol "will demonstrate"
[1] = tested on: Pharmacologically Induced Prolonged Erection (Pipe); assay: Effect on papaverine- and phenoxybenzamine-induced prolonged erection (PIPE), penile length, baboons; type: in vivo, baboon; conditions: for increase in penile length: intracavernous papaverine (40 mg) or phenoxybenzamine (3 mg), within 10 min after administration
Procedure: Six male baboons weighing between 8 kg and 12 kg were used for the experiment. The animals were sedated with ketamine and anaesthetised with intravenous pentobarbitone injected through an indwelling venous catheter. Drugs were injected into the right corpora cavornosa at the mid-third of the shaft using a 29G needle and 1 ml syringe. Blood pressure was monitored through a cannulated femoral artery connected to the transducer. A measuring tape was used to measure penile length visually from a marked point at the base of the penis to the tip of urethral orifice. Changes in penile length were recorded for a period of 100 min after injection.
Intracavernous injection of papaverine (40 mg) or phenoxybenzamine (3 mg) which produced maximal penile length within 20 and 40 min were repeated one week later and prostaglandin A2 was given at the peak time of the turgidity.
In baboons, intracavernous injection of papaverine (40 mg) or phenoxybenzamine (3 mg) produced a 130% increase in penile length within […] after administration (Table 1). This increase in penile length lasted for more than 100 min. This was repeated one week later and when prostaglandin A2 was injected intracavernosally at the maximum rigidity 20 min after the drug administration, the latter produced a marked reduction in penile length and within 40 min of injection, the penile size reduced to the original state of rugosity (Table 1). The fall in systemic blood pressure produced by prostaglandin A2 ranged from 8 to 16 mmHg. Each value reported in Table 1 represents the mean of six experiments.

CCCCC[C@H](O)/C=C/C1=C(CCCCCCC(=O)O)C(=O)CC1 [prostaglandin B1]
contraction of the cavernosum (cavernosum): effective in inducing, promoting, or otherwise facilitating contraction of the cavernosum but are not as active as prostaglandin A2

COc1ccc(Cc2nccc3cc(OC)c(OC)cc23)cc1OC [Papaverine, papaverine]
increase in penile length [1]: 130%
Mean Change in Penile Length (% of Control) ([1]; papaverine 40 mg intracavernous alone, 1 min after injection): 30%
Mean Change in Penile Length (% of Control) ([1]; papaverine 40 mg intracavernous alone, 2 min after injection): 40%
Mean Change in Penile Length (% of Control) ([1]; papaverine 40 mg intracavernous alone, 5 min after injection): 52%
Mean Change in Penile Length (% of Control) ([1]; papaverine 40 mg intracavernous alone, 10 min after injection): 130%
Mean Change in Penile Length (% of Control) ([1]; papaverine 40 mg intracavernous alone, 20 min after injection): 130%
Mean Change in Penile Length (% of Control) ([1]; papaverine 40 mg intracavernous alone, 40 min after injection): 130%
Mean Change in Penile Length (% of Control) ([1]; papaverine 40 mg intracavernous alone, 60 min after injection): 130%
Mean Change in Penile Length (% of Control) ([1]; papaverine 40 mg intracavernous alone, 80 min after injection): 130%
Mean Change in Penile Length (% of Control) ([1]; papaverine 40 mg intracavernous alone, 100 min after injection): 130%

CCCCC[C@H](O)/C=C/C1=C(C/C=C\CCCC(=O)O)C(=O)CC1 [prostaglandin B2]
contraction of the cavernosum (cavernosum): effective in inducing, promoting, or otherwise facilitating contraction of the cavernosum but are not as active as prostaglandin A2

CCCCC[C@H](O)/C=C/[C@H]1C=CC(=O)[C@@H]1CCCCCCC(=O)O [prostaglandin A1]
contraction of the cavernosum (cavernosum): effective in inducing, promoting, or otherwise facilitating contraction of the cavernosum but are not as active as prostaglandin A2

CC(COc1ccccc1)N(CCCl)Cc1ccccc1 (centres unmarked) [Phenoxybenzamine, phenoxybenzamine]
increase in penile length [1]: 130%
Mean Change in Penile Length (% of Control) ([1]; phenoxybenzamine 3 mg intracavernous alone, 1 min after injection): 10%
Mean Change in Penile Length (% of Control) ([1]; phenoxybenzamine 3 mg intracavernous alone, 2 min after injection): 15%
Mean Change in Penile Length (% of Control) ([1]; phenoxybenzamine 3 mg intracavernous alone, 5 min after injection): 15%
Mean Change in Penile Length (% of Control) ([1]; phenoxybenzamine 3 mg intracavernous alone, 10 min after injection): 48%
Mean Change in Penile Length (% of Control) ([1]; phenoxybenzamine 3 mg intracavernous alone, 20 min after injection): 80%
Mean Change in Penile Length (% of Control) ([1]; phenoxybenzamine 3 mg intracavernous alone, 40 min after injection): 120%
Mean Change in Penile Length (% of Control) ([1]; phenoxybenzamine 3 mg intracavernous alone, 60 min after injection): 120%
Mean Change in Penile Length (% of Control) ([1]; phenoxybenzamine 3 mg intracavernous alone, 80 min after injection): 120%
Mean Change in Penile Length (% of Control) ([1]; phenoxybenzamine 3 mg intracavernous alone, 100 min after injection): 120%
